Laboratory results: patent US12678453B2, “Aerosolized formulations of HIV protease inhibitors for the treatment of airway reflux” (The Medical College of Wisconsin, Inc., priority 2020, dated 2026)
“Also recorded” adds a separate entry of the source.

How the values were obtained:
[1] = system: mouse model of laryngopharyngeal reflux (LPR); test: in vivo mouse model of LPR (laryngeal wounding and pepsin instillation, H&E histology); details: for laryngeal histology (H&E) / pepsin-mediated laryngeal injury: pepsin pH7 group; for laryngeal histology (H&E): solvent (saline/PBS pH7) group
Source text: An in vivo mouse model of direct application of pepsin, to mimic laryngeal exposure during LPR, and treatment with select HIV protease inhibitors by either gavage (oral systemic delivery) or aerosolized delivery (inhaled local delivery) was used. […] Each group contained 3 mice. Six-week-old female Jackson A/J mice (Jackson Laboratory, Bar Harbor, ME), weighed one day after arrival, then weekly, on Mondays thereafter.
Avertin was the preferred anesthetic for the brief application time needed as it has a rapid induction, produces a short surgical anesthesia, and has a rapid recovery. […] For this experiment, isoflurane inhalation was used. The isoflurane, self-scavenging machine, was operated at 3% isoflurane with 2.5 liters of air per minute (LPM). The induction chamber was charged for 3-5 minutes prior to the mice being anesthetized. Mice were placed in the induction chamber for 3-5 minutes prior to any wounding or administrations. Anesthesia records were kept according to IACUC policy.
Animals secured by a copper wire attached to the board from which the mice were suspended by their upper teeth. This caused the lower jaw to fall open naturally, exposing the larynx and permitting visualization with a Zeiss microscope at 6× magnification. […] Under direct visualization, the subglottis, glottis, and supraglottis regions were superficially scratched interiorly from distal to proximal as the needle was pulled out gently, making a mild abrasion. This procedure was performed twice, with one week between woundings.
To examine the effect pepsin at acid and nonacid pH, animals were treated for 2 weeks with laryngeal instillation of pepsin (20 μL at 0.3 mg/ml, pH 7.0 or pH 4.0) at 24, 48, and 72 h post wounding procedure. During weeks 3 and 4, animals were treated with laryngeal instillation for 3 days per week. Mice were sacrificed and samples collected on Friday of the fourth week.
The twelve mice in the aerosol groups were condition in the nose-only exposure chamber (Intox) on three separate days by exposure to dry air for 10 min. Beginning the Monday (day 1) of the next week, aerosols and gavages were performed on the mice Monday through Friday (5 exposures). The aerosols and gavages continued Monday-Friday for three more weeks, with the final week consisting of 4 total exposure days, Monday-Thursday, (19 total) with the mice sacrificed and tissues harvested on Friday. Each mouse received two woundings and 12 solvent or pepsin administrations. Wounding and intratracheal administrations were concurrent with the aerosol and gavage treatments. The first wounding was performed on day 2, followed by solvent or pepsin administrations on days 3, 4, and 5. The second wounding was performed on day 8, followed by solvent or pepsin administrations on days 9, 10, and 11. In weeks 3 and 4, mice received solvent or pepsin administrations on days 16, 17, and 18 and days 23, 24, and 25. Day 26 was sacrifice and tissue harvest.
A 10 mL suspension of drug in ethanol was placed in the baffle, such that the concentration would remain constant at the equilibrium solubility. Droplets of ethanol containing dissolve drug were generated by an ultrasonic atomizer (nominal frequency 1.7 MHz) entrained by air at a flow rate of 0.5 LPM with a custom-built glass baffle (University of Minnesota, Department of Chemistry Glass Shop). The aerosol cloud was then passed through a cylindrical drying column containing an annular ring of charcoal. The ethanol is removed and the emanating dry aerosol particles of pure drug were then directed into the exposure chamber.
The mass deposited on the filters in a fixed collection time was measured gravimetrically, and with the collection time, allowed calculation of the total output rate (mg/min). The aerosol concentration (mass/volume of air) was calculated by dividing the total output rate by the air flow rate (0.5 LPM).

[2] = solubility; type: physicochemical; details: co-crystallization solution
Description: Lyophilized porcine pepsin A (Worthington Biochemical Corporation) was dissolved in water at 200 mg/mL. All ligand stock solutions, except for saquinavir mesylate, were prepared as saturated solutions in DMSO in order to dissolve the maximal amount of ligand. The solutions were centrifuged and an appropriate volume of the supernatant was added to the pepsin solution so that final mixture contained 1.6% of the ligand stock by volume. The mixtures were incubated at room temperature for 1 h, centrifuged for 10 min at 31,000 rcf, and the supernatant was used for crystallization experiments. […] In order to maximize the solubility of saquinavir in the crystallization solution, we tested solutions from the CryoSol screen (Molecular Dimensions) (PMID 28626721). Mixture SM2 consisting of 37.5% v/v dioxane, 25% v/v DMSO, 12.5% v/v ethylene glycol, 12.5% v/v 1,2-propanediol, and 12.5% v/v glycerol allowed us to increase the amount of ligand solution in the co-crystallization mixture without damaging the protein. The saturated solution of saquinavir in SM2 was treated in the same manner as solutions of other ligands except that its amount in the solution with pepsin was increased to 5% by volume.

Structure (SMILES) | pepsin-mediated laryngeal injury (multi-layered, reactive epithelia and cell apoptosis) ([1]; aerosol, 12 mg/kg/d) | laryngeal histology (H&E) / pepsin-mediated laryngeal injury ([1]; aerosol) | laryngeal histology (H&E) ([1]; aerosol) | laryngeal histology (H&E) / pepsin-mediated laryngeal injury ([1]; gavage) | laryngeal histology (H&E) / pepsin-mediated laryngeal injury ([1]; gavage, listed as Darunavir) | laryngeal histology (H&E) ([1]; gavage) | solubility [2]
CC(C)CN(C[C@@H](O)[C@H](Cc1ccccc1)NC(=O)O[C@H]1CO[C@H]2OCC[C@H]21)S(=O)(=O)c1ccc(N)cc1 [darunavir, [(3a S,4R,6aR)-2,3,3a,4,5,6a-hexahydrofuro[2,3-b]furan-4-yl] N-[(2S,3R)-4-[(4-aminophenyl)sulfonyl-(2-methylpropyl)amino]-3-hydroxy-1-phenylbutan-2-yl]carbamate] | effective in preventing pepsin mediated injury | normal histology; also recorded: mild protection against pepsin-mediated damage | normal histology | appeared similar | mild reactive epithelia in the pepsin group but less than pepsin control | mild reactive epithelia in the solvent group, but less than pepsin control; also recorded: mild reactivity (rare intraepithelial lymphocytes) | –
CC(C)(C)NC(=O)[C@@H]1C[C@@H]2CCCC[C@@H]2CN1C[C@@H](O)[C@H](Cc1ccccc1)NC(=O)[C@H](CC(N)=O)NC(=O)c1ccc2ccccc2n1 [saquinavir, (2S)—N-[(2S,3R)-4-[(3 S,4aS,8aS)-3-(tert-butylcarbamoyl)-3,4,4a,5,6,7,8,8a-octahydro-1H-isoquinolin-2-yl]-3-hydroxy-1-phenylbutan-2-yl]-2-(quinoline-2-carbonylamino)butanediamide] | – | – | – | – | – | – | low solubility
